The term bioavailability denotes dose-corrected exposure relative to a reference, in per cent.

Data on two compounds can be found in patent publication US8673360B2, “Compositions that enable rapid-acting and highly absorptive intranasal administration” (Shin Nippon Biomedical Laboratories, Ltd., priority 2004, dated 2014).

Series [1] is described as follows: Intranasal administration of oxycodone in cynomolgus monkeys: plasma oxycodone by HPLC, against subcutaneous injection.
A short description of series [2]: Intranasal administration of tropisetron in cynomolgus monkeys: plasma tropisetron by HPLC, against intravenous injection. The series is classed as in vivo.
Experimental: A single dose of an intranasal delivery composition was nasally administered to cynomolgus monkeys (body weight: 4.3 to 7.2 kg). Each composition was encapsulated and administered nasally using a device for nasal administration (Bioactis Co. Ltd.).
27.5 mg of tropisetron hydrochloride (equivalent to 25 mg of tropisetron free base) (Sigma), which is an antiemetic agent, and 72.5 mg of crystalline cellulose (Asahi Kasei: Avicel™ PH-F20) were mixed thoroughly in a mortar. The obtained tropisetron composition was prepared and 4.4 mg tropisetron hydrochloride (equivalent to 4.0 mg of tropisetron free base) per head was administered nasally to male cynomolgus monkeys weighing from 6.3 to 7.2 kg (n=3).
The injection was given intravenously to male cynomolgus monkeys weighing 6.9 and 7.2 kg (n=2), at 0.22 mg tropisetron hydrochloride (equivalent to 0.20 mg of tropisetron free base) per kg weight.
The plasma concentration of tropisetron free base after administration was determined by the HPLC method.
The time course of plasma tropisetron concentration after intravenous injection was subjected to a 2-compartment model analysis using the linear least-square method. The area under the theoretical plasma concentration vs. time curve (AUC) was determined based on the theoretical plasma tropisetron concentration calculated.

On to `COc1ccc2c3c1O[C@H]1C(=O)CC[C@@]4(O)[C@@H](C2)N(C)CC[C@]314` [oxycodone], for which, in series [1] (intranasal, time course of plasma concentrations), the “Time at which the maximum plasma concentration of oxycodone was reached” value was 20 min. Moreover, the bioavailability in series [1] (male, cynomolgus, cynomolgus monkey, plasma, other: intranasal, […]) is 71.7%.

Consider `CN1[C@@H]2CC[C@H]1C[C@@H](OC(=O)c1c[nH]c3ccccc13)C2` [tropisetron], for which the “Time at which the maximum plasma concentration of tropisetron was achieved” value in series [2] (intranasal, time course of average plasma concentrations) worked out at 5 min. In addition, the bioavailability in series [2] (male, cynomolgus monkey, plasma, other: intranasal, nasal, 4 mg/body (0.59 mg/kg), compared with intravenous injection, read-out: BA (bioavailability) of tropisetron) stood at 73.4%.
